Test results published in PMC11636765, “Importance of Considering Fed-State Gastrointestinal Physiology in Predicting the Reabsorption of Enterohepatic Circulation of Drugs” (Pharmaceutical Research, 2024).
Values after ≈ are worked out from the molar mass of the structure shown. Like-named read-outs stand apart in the source and are kept apart here.

Columns and labels:
[1] = In vitro dissolution test of tablets in biorelevant media (USP apparatus II paddle); assay type: physicochemical; conditions: for Dissolution in FaSSIF-V2: tablet, 500 mL, paddle 50 rpm, up to 60 min
Description: (§1) Fasted State Simulated Gastric Fluid (FaSSGF) and Fasted State Simulated Intestinal Fluid version 2 (FaSSIF-V2) were used for dissolution tests and solubility tests. Fed State Simulated Intestinal Fluid version 2 (FeSSIF-V2) was used for solubility tests. These media contain sodium taurocholate as the bile acid. Their composition and preparation method have been previously reported and were prepared accordingly, except that FaSSGF was used without pepsin.
For in vitro dissolution tests, a USP apparatus II paddle dissolution tester (NTR-6400AC, Toyama Sangyo Co., Ltd., Osaka, Japan) was used. The media volume of FaSSGF and FaSSIF-V2 was 300 mL and 500 mL, respectively, and temperature in the dissolution vessel was maintained at 37℃ ± 0.5℃. […] Paddle rotation speed during the dissolution test was maintained at 50 rpm for up to 60 min. The samples were filtered through PVDF 0.45 µm filters (Whatman, GD/X, 13 mm, Cytiva, Chicago, IL, USA) immediately after withdrawal, and filtrates were recovered after the first 2 mL was discarded. […] All dissolution tests were conducted in triplicate.
When the tablets […] during the infinity spin in the dissolution test, separate solubility measurements were performed, as described in the next paragraph.
TSKgel ODS-100Z 5 µm (4.6 mm × 15 cm, Tosoh Corporation, Tokyo, Japan) was used as analytical column for both drugs. Column temperature during analysis was set to 40℃. A mixture of perchlorate (Na) buffer pH 2.5 and acetonitrile (50:50, v/v) was used as mobile phase. […] Flow rate and injection volume were 1.2 mL/min and 10 μL, respectively. […]

[2] = cited from earlier work
[3] = Estimation of effective permeability (Peff) in the human small intestine from Caco-2 Papp
Description: The Papp for each compound was cited from previous reports [39, 40] or calculated using an equation [41] based on the reported partition coefficient [25, 42].

[4] = Solubility test of drug substances in biorelevant media and free fraction calculation; assay type: physicochemical; conditions: for Free fraction: fraction of drug not entrapped in micelles in FeSSIF-V2, Eq. (8), from FaSSIF-V2/FeSSIF-V2 solubility; for Solubilization by bile micelles: in vitro solubility in biorelevant media
Description: as §1
The excess amount of ezetimibe powder was added to 10 mL FaSSIF-V2 and FeSSIF-V2. Test tubes containing the drug substances in the biorelevant media were vigorously shaken at 37℃ ± 0.5℃ for 5 h. An approximately 5 mL sample was withdrawn using a plastic syringe, then filtered through a PVDF 0.45 µm filter. The filtrates (after discarding the first ca. 2 mL) were diluted with 50:50 v/v acetonitrile for analysis to prevent precipitation, except for that of ezetimibe tested in FeSSIF-V2. All solubility tests were conducted in triplicate.
TSKgel ODS-100Z 5 µm (4.6 mm × 15 cm, Tosoh Corporation, Tokyo, Japan) was used as analytical column for both drugs. Column temperature during analysis was set to 40℃. A mixture of perchlorate (Na) buffer pH 2.5 and acetonitrile (50:50, v/v) was used as mobile phase. […] Flow rate and injection volume were 1.2 mL/min and 10 μL, respectively.
Sodium taurocholate and lecithin concentration in FaSSIF-V2 are 3 mM and 0.2 mM, respectively, and those in FeSSIF-V2 are 10 mM and 2 mM, respectively. […] The formulation was considered able to exist in the small intestine for 4 h after administration. Initial intestinal fluid volume in both prandial states was set to 100 mL [31].

[5] = parameters: method as in earlier work; conditions: cited from earlier work
[6] = cited from earlier work; remark: listed apart in the source
[7] = cited from earlier work; remark: listed apart in the source
[8] = FaSSIF-V2, drug substance powder, 37℃, shaken 5 h, pH 6.5, read-out: Solubility in FaSSIF-V2
[9] = FeSSIF-V2, 37 °C, fessif, thermodynamic from solid, drug substance powder, 37℃, shaken 5 h, pH 5.8, read-out: Solubility in FeSSIF-V2

O=C1[C@H](CC[C@H](O)c2ccc(F)cc2)[C@@H](c2ccc(O)cc2)N1c1ccc(F)cc1 [Ezetimibe, ezetimibe]
solubility at 120 min ([1]; FaSSIF-V2, for PK simulation, Zetia: infinity point of tablet dissolution test, Mobic: adopted from drug substance solubility test): 4.93 µg/mL (≈ 12 µM) | Dissolution in FaSSIF-V2 [1]: around 20% | Log P [2]: 4.5 | Papp [3]: 121 ×10⁻⁶ cm/s | solubility at 5 h [4, 8]: 3.79 ± 0.133 µg/mL (≈ 9.26 µM) | solubility at 5 h [4, 9]: 22.3 ± 0.203 µg/mL (≈ 54.5 µM) | Free fraction [4]: 0.169 | Solubilization by bile micelles [4]: clearly shown to be solubilized by the mixed micelles | Solubility in the aqueous phase [5]: virtually insoluble | Effect of concomitant food on extent of absorption [6]: not affected | pKa [7]: 9.7

O=C(O)[C@H]1O[C@@H](Oc2ccc([C@@H]3[C@@H](CC[C@H](O)c4ccc(F)cc4)C(=O)N3c3ccc(F)cc3)cc2)[C@H](O)[C@@H](O)[C@@H]1O [glucuronide]
Plasma concentration of glucuronide relative to parent drug in terms of AUC ([6]; humans, Zetia tablet): about seven-fold

Cc1cnc(NC(=O)C2=C(O)c3ccccc3S(=O)(=O)N2C)s1 [Meloxicam, meloxicam]
Dissolution in FaSSIF-V2 [1]: about 80% | Log P ([2]; calculated value based on apparent partition coefficient Log Papp): 3.32 | solubility at 5 h [4, 8]: 172 ± 12.3 µg/mL (≈ 489 µM) | solubility at 5 h [4, 9]: 42.7 ± 1.53 µg/mL (≈ 122 µM) | solubility at 5 h ([4]; blank FaSSIF-V2 (without surfactant), drug substance, medium without surfactant, read-out: Solubility in blank FaSSIF-V2): 164 µg/mL (≈ 467 µM) | solubility at 5 h ([4]; blank FeSSIF-V2 (without surfactant), drug substance, medium without surfactant, read-out: Solubility in blank FeSSIF-V2): 32.5 µg/mL (≈ 92.5 µM) | Free fraction [4]: Regard as 1 | Free fraction ([4]; listed as meloxicam): 1 | Solubilization by bile micelles [4]: insignificant
